Measurements: patent publication US20040077674A1, “Mappicine analogs, intermediates in the synthesis of mappicine analogs and methods of synthesis of mappicine analogs” (priority 2002, published 2004)

Tests used:
[1] = target: T1, RNA-dependent DNA polymerase activity of HIV reverse transcriptase (Human immunodeficiency virus type 1 group M subtype B, UniProt P03366); test: RNA-dependent DNA polymerase activity assay of HIV reverse transcriptase; format: biochemical, HIV-1; conditions: 10 μM inhibitor concentration, activity in presence / in absence of analog x 100
T1 construct: made in house
Procedure: In separate representative assays, mappicine analogs were tested for their ability to inhibit the RNA-dependent DNA polymerase activity of HIV reverse transcriptase and for their ability to inhibit the RNase H activity of HIV reverse transcriptase. The assay for RNA-dependent DNA polymerase activity is discussed in Borkow, G. et al., “Inhibition of the Ribonuclease H and DNA Polymerase Activities of HIV-1 Reverse Transcriptase by N-(4-tert-Butylbenzoyl)-2-hydroxy-1-naphthaldehyde Hydrazone,” Biochemistry 1997, 36, 3179-3185, a copy of which is attached hereto and the disclosure of which is incorporated herein by reference. Assays were carried out in the absence and in the presence of mappicine analogs (10 μM final concentration). The results are reported as % residual activity, which is the RNA-dependent DNA polymerase activity of the enzyme in the presence of the mappicine analog divided by the RNA-dependent activity of the enzyme in the absence of the mappicine analog, multiplied by 100.

[2] = target: T2, RNase H activity of HIV reverse transcriptase (Human immunodeficiency virus type 1 group M subtype B, UniProt P03366); test: Fluorescence (FRET)-based RNase H assay of HIV reverse transcriptase; format: biochemical, HIV-1; conditions: 10 μM inhibitor concentration, activity in presence / in absence of analog x 100
T2 construct: 2.5 nM of the p51/p66 RT heterodimer in the assay; made in house
Procedure: Recently, a fluorescence-based assay to perform screens in search of HIV RNase H inhibitors has been developed. The assay, which is carried out in 96-well microplates and is adaptable to robotics, is the first high-throughput screen for RNase H and is described in further detail in the Experimental section. HIV-1 RT and human RNase H were cloned, and thus comparative analysis of inhibitor action could be conducted simultaneously.
The assay for RNase H activity of HIV reverse transcriptase was the fluorescence-based assay described in detail in the Experimental section and discussed in U.S. Provisional Patent Application Serial No. 60/318,359. Assays were carried out in the absence and in the presence of mappicine analogs (10 μM or 20 μM final concentration). The results are reported as % residual activity, which is the RNase H activity of the enzyme in the presence of the mappicine analog divided by the RNase H activity of the enzyme in the absence of the mappicine analog, multiplied by 100. Alternatively, the results are reported as % inhibition, which is calculated as the ratio of the RNase H activity of the enzyme in the presence of the mappicine analog to the enzyme activity in the absence of the mappicine analog, multiplied by 100, and then subtracting this number from 100.
Assay for Ribonuclease H Activity Based on Fluorescence Resonance Energy Transfer (FRET)
Preparation of the Fluorophore-RNA/Quencher-DNA Hybrid Duplex Substrate.
The RNA/DNA hybrid duplex substrate for use in the assay comprises an RNA oligonucleotide of sequence 5′-GAU CUG AGC CUG GGA GCU-3′, modified at the 3′-end with Aminolink-2 and derivatized with fluorescein isothiocyanate, to provide a modified RNA oligonucleotide of the sequence 5′-GAU CUG AGC CUG GGA GCU-fluorescein-3′, annealed to a complementary DNA oligonucleotide of the sequence 5′-AGC TCC CAG GCT CAG ATC-3′ modified at the 5′-end with Aminolink-2 and derivatized with the FRET acceptor DABCYL succinimidyl ester, to provide a modified DNA oligonucleotide of the sequence 5′-DABCYL-AGC TCC CAG GCT CAG ATC-3′.
To prepare the 3′-fluorescein-RNA/5′-DABCYL-DNA hybrid duplex substrate, a known amount of 3′-fluorescein-RNA was dissolved in 20 mM Tris buffer (pH 8.0, 37° C.) to provide a final concentration of 5 μM. Two equivalents of the 5′-DABCYL-DNA oligonucleotide were added, and the mixture was heated to 90° C. for 5 min and cooled slowly to room temperature to allow duplex formation. The positioning of the fluorescein donor at the 3′-end of the RNA oligonucleotide and the DABCYL acceptor at the 5′-end of the DNA oligonucleotide provides a very close proximity of the donor and acceptor that results in a very intense quenching of the fluorescein emission in the intact RNA/DNA hybrid duplex substrate due to the spectral overlap of the fluorescence emission of fluorescein with the absorption spectrum of DABCYL. In addition, DABCYL is non-fluorescent, and thus cannot contribute any light emission. Both of these factors result in a very low background and provide a high signal-to-noise in the assay measurements. The ratio of the donor fluorescence in the absence and in the presence of its quencher is approximately fifteen-fold.
Microplate Assay Protocol for the Measurement of RNase H Activity Using the RNA/IDNA Hybrid Duplex Substrate.
Reaction assay mixtures contained 5 μl of a stock solution of 2.5 μM RNA/DNA hybrid duplex substrate added to 85 μl of assay buffer (50 mM Tris, pH 8.0, 37° C., containing 60 mM KCl and 2.5 mM MgCl2), prepared in the wells of a 96-well fluorescence microtiter plate, and warmed to 37° C. using the temperature control of the SpectraMax Gemini XS microplate spectrofluorometer (Molecular Devices). Reactions were started by the addition of 5 μl of a solution of recombinant HIV-1 reverse transcriptase (usually providing a final concentration of 2.5 nM of the p51/p66 RT heterodimer in the assay), and mixing using the automatic mixing function of the microplate spectrofluorometer. […]

## Cc1c(C(O)Cc2ccccc2)cc2n(c1=O)Cc1c-2nc2ccccc2c1[Si](C)(C)C(C)(C)C (stereo not shown) [5 (4Aε)]
[1]
  Residual activity (%) Polymerase: 83%
[2]
  Residual activity (%) RNase H: 93%

## CCCCCCc1c2c(nc3ccc(C)cc13)-c1cc(C(=O)CCC3CCCCC3)c(C)c(=O)n1C2 [5 (8Cδκ)]
[1]
  Residual activity (%) Polymerase: 79%
[2]
  Residual activity (%) RNase H: 95%

## Cc1c(C(=O)C(C)(C)C)cc2n(c1=O)Cc1c-2nc2ccc(F)cc2c1-c1ccccc1 [5 (3Bβκ)]
[1]
  Residual activity (%) Polymerase: 61%
[2]
  Residual activity (%) RNase H: 95%

## COc1ccc2nc3c(c([Si](C)(C)C)c2c1)Cn1c-3cc(C(=O)C(C)(C)C)c(C)c1=O [5 (5Dβκ)]
[1]
  Residual activity (%) Polymerase: 64%
[2]
  Residual activity (%) RNase H: 86%

## CCC(O)c1cc2n(c(=O)c1C)Cc1c-2nc2ccccc2c1[Si](C)(C)C(C)(C)C (stereo not shown) [5 (4Aα)]
[1]
  Residual activity (%) Polymerase: 67%
[2]
  Residual activity (%) RNase H: 104%

## Cc1c(C(=O)CCC2CCCCC2)cc2n(c1=O)Cc1c-2nc2ccccc2c1[Si](C)(C)C(C)(C)C [5 (4Aδκ)]
[1]
  Residual activity (%) Polymerase: 39%
[2]
  Residual activity (%) RNase H: 102%

## COc1ccc2nc3c(c(-c4ccccc4)c2c1)Cn1c-3cc(C(O)Cc2ccccc2)c(C)c1=O (stereo not shown) [5 (3Dε)]
[1]
  Residual activity (%) Polymerase: 61%
[2]
  Residual activity (%) RNase H: 79%

## COc1ccc2nc3c(c([Si](C)(C)C(C)(C)C)c2c1)Cn1c-3cc(C(O)Cc2ccccc2)c(C)c1=O (stereo not shown) [5 (4Dε)]
[1]
  Residual activity (%) Polymerase: 49%
[2]
  Residual activity (%) RNase H: 76%

## CCCCCCc1c2c(nc3ccc(OC)cc13)-c1cc(C(O)C(C)(C)C)c(C)c(=O)n1C2 (stereo not shown) [5 (8Dβ)]
[1]
  Residual activity (%) Polymerase: 68%
[2]
  Residual activity (%) RNase H: 67%

## CCCCCCc1c2c(nc3ccc(OC)cc13)-c1cc(C(=O)CCC3CCCCC3)c(C)c(=O)n1C2 [5 (8Dδκ)]
[1]
  Residual activity (%) Polymerase: 65%
[2]
  Residual activity (%) RNase H: 90%

## Cc1ccc2nc3c(c(-c4ccccc4)c2c1)Cn1c-3cc(C(=O)C(C)(C)C)c(C)c1=O [5 (3Cβκ)]
[1]
  Residual activity (%) Polymerase: 63%
[2]
  Residual activity (%) RNase H: 96%

## Cc1ccc2nc3c(c(-c4ccccc4)c2c1)Cn1c-3cc(C(O)Cc2ccccc2)c(C)c1=O (stereo not shown) [5 (3Cε)]
[1]
  Residual activity (%) Polymerase: 76%
[2]
  Residual activity (%) RNase H: 101%

## Cc1c(C(O)CCC2CCCCC2)cc2n(c1=O)Cc1c-2nc2ccccc2c1[Si](C)(C)C (stereo not shown) [5 (5Aδ)]
[1]
  Residual activity (%) Polymerase: 83%
[2]
  Residual activity (%) RNase H: 78%

## CCC(O)c1cc2n(c(=O)c1C)Cc1c-2nc2ccc(F)cc2c1-c1ccccc1 (stereo not shown) [5 (3Bα)]
[1]
  Residual activity (%) Polymerase: 54%
[2]
  Residual activity (%) RNase H: 83%

## CCc1c2c(nc3ccc(NC(=O)OC(C)(C)C)cc13)-c1cc(C(O)CC)c(C)c(=O)n1C2 (stereo not shown) [5 (AG 5M), 2-tert-Butyloxycarbonylamino-12-ethyl-7-(1-hydroxypropyl)-8-methyl-11H-indolizino[1,2-b]quinolin-9-one]
[1]; read-out: Residual activity (%) Polymerase
  remaining activity at 10 µM: 87%
[2]; read-out: Residual activity (%) RNase H
  remaining activity at 10 µM: 68%

## CCCCCCc1c2c(nc3ccc(C)cc13)-c1cc(C(=O)C(C)(C)C)c(C)c(=O)n1C2 [5 (8Cβκ)]
[1]
  Residual activity (%) Polymerase: 66%
[2]
  Residual activity (%) RNase H: 95%

## Cc1c(C(O)CCC2CCCCC2)cc2n(c1=O)Cc1c-2nc2ccc(F)cc2c1-c1ccccc1 (stereo not shown) [5 (3Bδ)]
[1]
  Residual activity (%) Polymerase: 81%
[2]
  Residual activity (%) RNase H: 99%

## Cc1ccc2nc3c(c([Si](C)(C)C)c2c1)Cn1c-3cc(C(=O)C(C)(C)C)c(C)c1=O [5 (5Cβκ)]
[1]
  Residual activity (%) Polymerase: 76%
[2]
  Residual activity (%) RNase H: 92%

## CCC(O)c1cc2n(c(=O)c1C)Cc1c-2nc2ccc(OC)cc2c1[Si](C)(C)C (stereo not shown) [5 (5Dα)]
[1]
  Residual activity (%) Polymerase: 88%
[2]
  Residual activity (%) RNase H: 78%

## CCCCCCc1c2c(nc3ccc(F)cc13)-c1cc(C(O)CC)c(C)c(=O)n1C2 (stereo not shown) [5 (8Bα)]
[1]
  Residual activity (%) Polymerase: 57%
[2]
  Residual activity (%) RNase H: 80%

## Cc1ccc2nc3c(c([Si](C)(C)C)c2c1)Cn1c-3cc(C(=O)CCC2CCCCC2)c(C)c1=O [5 (5Cδκ)]
[1]
  Residual activity (%) Polymerase: 59%
[2]
  Residual activity (%) RNase H: 99%

## Cc1ccc2nc3c(c([Si](C)(C)C(C)(C)C)c2c1)Cn1c-3cc(C(O)CCC2CCCCC2)c(C)c1=O (stereo not shown) [5 (4Cδ)]
[1]
  Residual activity (%) Polymerase: 61%
[2]
  Residual activity (%) RNase H: 109%

## Cc1c(C(=O)C(C)(C)C)cc2n(c1=O)Cc1c-2nc2ccc(F)cc2c1[Si](C)(C)C [5 (5Bβκ)]
[1]
  Residual activity (%) Polymerase: 63%
[2]
  Residual activity (%) RNase H: 100%

## CCCCCCc1c2c(nc3ccccc13)-c1cc(C(=O)C(C)(C)C)c(C)c(=O)n1C2 [5 (8Aβκ)]
[1]
  Residual activity (%) Polymerase: 76%
[2]
  Residual activity (%) RNase H: 96%

## COc1ccc2nc3c(c([Si](C)(C)C(C)(C)C)c2c1)Cn1c-3cc(C(=O)CCC2CCCCC2)c(C)c1=O [5 (4Dδκ)]
[1]
  Residual activity (%) Polymerase: 50%
[2]
  Residual activity (%) RNase H: 83%

## COc1ccc2nc3c(c(-c4ccccc4)c2c1)Cn1c-3cc(C(O)C(C)(C)C)c(C)c1=O (stereo not shown) [5 (3Dβ)]
[1]
  Residual activity (%) Polymerase: 85%
[2]
  Residual activity (%) RNase H: 70%

## Cc1ccc2nc3c(c([Si](C)(C)C(C)(C)C)c2c1)Cn1c-3cc(C(=O)C(C)(C)C)c(C)c1=O [5 (4Cβκ)]
[1]
  Residual activity (%) Polymerase: 67%
[2]
  Residual activity (%) RNase H: 65%

## COc1ccc2nc3c(c([Si](C)(C)C(C)(C)C)c2c1)Cn1c-3cc(C(O)C(C)(C)C)c(C)c1=O (stereo not shown) [5 (4Dβ)]
[1]
  Residual activity (%) Polymerase: 47%
[2]
  Residual activity (%) RNase H: 91%

## CCC(=O)c1cc2n(c(=O)c1C)Cc1c-2nc2ccc(F)cc2c1[Si](C)(C)C(C)(C)C [5 (4Bακ)]
[1]
  Residual activity (%) Polymerase: 42%
[2]
  Residual activity (%) RNase H: 77%

## CCC(=O)c1cc2n(c(=O)c1C)Cc1c-2nc2ccc(OC)cc2c1[Si](C)(C)C [5 (5Dακ)]
[1]
  Residual activity (%) Polymerase: 50%
[2]
  Residual activity (%) RNase H: 86%

## CCCCCCc1c2c(nc3ccccc13)-c1cc(C(O)Cc3ccccc3)c(C)c(=O)n1C2 (stereo not shown) [5 (8Aε)]
[1]
  Residual activity (%) Polymerase: 58%
[2]
  Residual activity (%) RNase H: 71%

## Cc1c(C(O)Cc2ccccc2)cc2n(c1=O)Cc1c-2nc2ccccc2c1-c1ccccc1 (stereo not shown) [5 (3Aε)]
[1]
  Residual activity (%) Polymerase: 34%
[2]
  Residual activity (%) RNase H: 99%

## CCC(O)c1cc2n(c(=O)c1C)Cc1c-2nc2ccc(C)cc2c1[Si](C)(C)C (stereo not shown) [5 (5Cα)]
[1]
  Residual activity (%) Polymerase: 68%
[2]
  Residual activity (%) RNase H: 62%

## CCC(=O)c1cc2n(c(=O)c1C)Cc1c-2nc2ccccc2c1-c1ccccc1 [5 (3Aακ)]
[1]
  Residual activity (%) Polymerase: 64%
[2]
  Residual activity (%) RNase H: 87%

## Cc1ccc2nc3c(c([Si](C)(C)C)c2c1)Cn1c-3cc(C(O)CCC2CCCCC2)c(C)c1=O (stereo not shown) [5 (5Cδ)]
[1]
  Residual activity (%) Polymerase: 41%
[2]
  Residual activity (%) RNase H: 103%
